In patent publication US6936569B2, “Compositions and methods for protecting cultivated plants from herbicidal injury” (priority 1998, dated 2005):
Read-outs that look alike come from different tables or passages of the source.

Columns and labels:
[1] = test system: giant foxtail, Setaria faberi Herrm. (SETFA); assay: 1998 field trial: weed control, giant foxtail; assay type: in vivo; conditions: Table 8: field, 60 DAP
Experimental: (§1) Conventional tillage experiments were conducted in 1998 to evaluate the influence of SMS and AFS-MTMS, on corn tolerance and weed control from postemergence applications of isoxaflutole alone and in tank-mixture with metolachlor/benoxacor. Experiments were conducted at the Michigan State University Crop and Soil Science Research Farm at East Lansing, Mich. on Capac sandy clay loam soil (fine-loamy, mixed mesic Acric Ochraqualfs) containing 3.1% organic matter with a pH of 6.3 in 1998.
(§2) Tillage consisted of moldboard plowing in the fall prior to spring disking and field cultivation. Prior to spring cultivation, 320 kg/ha of 46-0-0 fertilizer was applied broadcast. At planting, 140 kg/ha of 6-24-24 fertilizer was applied as a banded treatment 5 cm below and 5 cm beside the corn seeds. Pioneer 37R71 corn was planted on May 11, 1998 at a rate of 62,000 seeds/ha. Each plot was 10.6 m long and consisted of 4 rows spaced 76 cm apart. […]
(§3) Corn tolerance was evaluated 30 days after planting (DAP) by visually evaluating plants for bleaching and necrotic symptoms and also by measuring corn height (base of plant to the crown) 40 DAP. Weed control by species was visually evaluated 60 DAP. […] Corn grain yield was determined by harvesting the center two rows of each plot with a plot combine. […]

[2] = test system: velvetleaf; conditions: postemergence application, isoxaflutole 105 g/ha; cited from earlier work
[3] = test system: common ragweed; conditions: postemergence application, isoxaflutole 105 g/ha; cited from earlier work
[4] = test system: common lambsquarters; conditions: postemergence application, isoxaflutole 105 g/ha; cited from earlier work
[5] = test system: ABUTH - velvet-leaf, Abutilon theophrasti Medicus; assay: 1998 field trial: weed control, velvetleaf; assay type: in vivo; conditions: Table 8: field, 60 DAP
Experimental: as §1, §2, §3

[6] = test system: AMARE redroot pigweed, Amaranthus retroflexus L; assay: 1998 field trial: weed control, redroot pigweed; assay type: in vivo; conditions: Table 8: field, 60 DAP
Experimental: as §1, §2, §3

[7] = test system: CHEAL - common lambsquarter, Chenopodium album L.; assay: 1998 field trial: weed control, common lambsquarters; assay type: in vivo; conditions: Table 8: field, 60 DAP
Experimental: as §1
Tillage consisted of moldboard plowing in the fall prior to spring disking and field cultivation. Prior to spring cultivation, 320 kg/ha of 46-0-0 fertilizer was applied broadcast. […]
as §3
Corn (ZEAMX) in the 2-leaf or 4-leaf stage was treated with herbicidal compositions consisting of BALANCE (isoxaflutole); BALANCE and DUAL II (metolachlor and the safener benoxacor); BALANCE and SMS; BALANCE and AFS-MTMS; BALANCE, DUAL II and SMS; or BALANCE, DUAL, and AFS-MTMS. The percent injury was determined 6 DAT, 12 DAT, and 30 DAP. […]

[8] = test system: ZEAMX - corn, Zea mays L.; assay type: in vivo; conditions: Table 8: field; for Corn Height: 40 DAP; for Grain Yield: seed weight adjusted to 15% moisture
Experimental: as §1
Tillage consisted of moldboard plowing in the fall prior to spring disking and field cultivation. Prior to spring cultivation, 320 kg/ha of 46-0-0 fertilizer was applied broadcast. At planting, 140 kg/ha of 6-24-24 fertilizer was applied as a banded treatment 5 cm below and 5 cm beside the corn seeds. Pioneer 37R71 corn was planted on May 11, 1998 at a rate of 62,000 seeds/ha. Each plot was 10.6 m long and consisted of 4 rows spaced 76 cm apart.
The tillage experiments were conducted as a randomized complete block design in a factorial arrangement with three replications. The factors consisted of herbicide application timing and herbicide treatment. Herbicides were applied when the corn was at the 2-leaf and 4-leaf stages. Corn leaf stages are described as the number of visible leaves. Herbicide treatments included isoxaflutole alone (BALANCE) at 105 g/ha and in combination with 1.1 kg/ha of metolachlor/benoxacor (DUAL II). Each of these treatments were applied either alone or with either SMS or AFS-MTMS. Each repellent was used at a rate of 0.5% v/v. Additional treatments not included in the factorial arrangement were an untreated check and a weed-free check. All herbicides were applied with a tractor mounted, compressed-air sprayer calibrated to deliver […] at 207 kPa using 8003 E flat-fan nozzles.
Corn tolerance was evaluated 30 days after planting (DAP) by visually evaluating plants for bleaching and necrotic symptoms and also by measuring corn height (base of plant to the crown) 40 DAP. Weed control by species was visually evaluated 60 DAP. Visual evaluations were based on a scale of 0 (no effect) to 100% (complete weed or crop death). Corn grain yield was determined by harvesting the center two rows of each plot with a plot combine. Seed weight was adjusted to 15% moisture.
Data were subjected to analysis of variance and means separated using Fisher's Protected LSD test at α=0.05. Data were combined over years when treatment and/or application timing by year interactions were not significant α=0.05. […] Corn height and yield results were converted to a percent of the weed-free treatment after separation.
Corn (ZEAMX) in the 2-leaf or 4-leaf stage was treated with herbicidal compositions consisting of BALANCE (isoxaflutole); BALANCE and DUAL II (metolachlor and the safener benoxacor); BALANCE and SMS; BALANCE and AFS-MTMS; BALANCE, DUAL II and SMS; or BALANCE, DUAL, and AFS-MTMS. The percent injury was determined 6 DAT, 12 DAT, and 30 DAP. As weed controls, the annual grasses (ANGR) and common lambsquarters, Chenopodium album L. (CHEAL) were treated with herbicidal compositions consisting of BALANCE; BALANCE and DUAL II; BALANCE and SMS; BALANCE and AFS-MTMS; BALANCE, DUAL II and SMS; or BALANCE, DUAL, and AFS-MTMS. The percent injury for the weed controls was determined 30 DAP.

[9] = test system: redroot pigweed; conditions: postemergence application, isoxaflutole 105 g/ha; cited from earlier work
[10] = test system: 2-leaf corn; assay: Greenhouse corn tolerance (visual injury, corn height) after isoxaflutole with or without acetochlor/MON-13900 plus adjuvants (Example 3); assay type: in vivo, Zea mays; conditions: Table 9: greenhouse, 8 DAT, isoxaflutole 105 g/ha
Experimental: This example was performed as in Example 1, except that adjuvants SMS and AFS-MTMS were added to an isoxaflutole tank-mixture that contained an acetochlor herbicide and the safener MON-13900. As in Example 1, the herbicide applications were made to 2-leaf corn, and the herbicide treatments consisted of isoxaflutole at 105 g/ha and isoxaflutole tank-mixed with 1.8 kg/ha of acetochlor/MON-13900 applied either alone or in combination with either NIS at 0.25% (v/v), SMS at 0.5% (v/v), or AFS-MTMS at 0.5% (v/v).
The herbicide compositions were applied through an 8003 E flat fan nozzle delivering 234 L/ha at a pressure of 172 kPa. Corn tolerance was evaluated 8 DAT by visually evaluating the plants for bleaching and necrotic symptoms and also by measuring corn height (base of the plant to its crown). Visual corn injury ratings were based on a scale from 0 to 100, with 0 indicating no effect and 100 indicating plant death. Corn height was measured in cm and presented as a percent of the non-treated plants, with 0 indicating total reduction in plant height and 100 indicating height equal to the non-treated plants. All experiments were conducted twice as completely randomized designs with four replications. Data were subjected to analysis of variance and means separated using Fisher's Protected LSD test at a+0.05. […]

[11] = test system: Pioneer 3573 corn; assay: Greenhouse corn tolerance (visual injury, corn height) after postemergence isoxaflutole with or without metolachlor/benoxacor plus test adjuvants (Example 1); assay type: in vivo, Zea mays; conditions: 8 DAT
Experimental: Various silicone-based compounds were evaluated for ability to prevent herbicidal injury to the corn when used as repellent adjuvants in herbicide formulations. In previous experiments, it was shown that isoxaflutole in combination with metolachlor and benoxacor applied once corn had emerged caused significant corn injury. The basis of this severe injury is the retention and subsequent absorption of isoxaflutole in the foliar tissue of the corn plant, which is exacerbated by the metolachlor herbicide in the composition. Therefore, to address this problem, a number of silicon-based compounds, which were believed to have repellent properties, were evaluated for the ability to prevent injury to corn plants. The compounds evaluated were an aqueous solution of […] sodium methyl siliconate and 67 weight percent water (“SMS”), an aqueous solution of 35.7 weight percent N-(2-aminoethyl)-3-aminopropyltrimethoxysilane, 58.2 weight percent methyltrimethoxysilane, and 6.1 weight percent water (“AFS-MTMS”), methyltrimethoxysilane (“MTMS”), and phosphonate ester alkyl silicon (“PEAS”). These test adjuvants are commercially available from Dow Corning, Midland, Mich. The test adjuvants were applied in combination with isoxaflutole or isoxaflutole in combination with metolachlor and the safener benoxacor, and the ability of the combination to reduce plant injury by inhibiting retention and subsequent absorption of the herbicide was evaluated.
Pioneer 3573 corn seeds (Pioneer 3573, a product of Pioneer Hi-Bred International, Inc., Des Moines, Iowa) were planted 2.54 cm deep, and velvetleaf and barnyardgrass seeds were planted 1.0 cm deep in 875 ml pots containing BACCTO professional greenhouse potting mix (a product of Michigan Peat Co., Houston, Tex.). The seedlings were grown in a greenhouse maintained at 25° C.±2° C. Natural sunlight was supplemented with light from sodium vapor lamps, which provided a total midday light intensity of 1,000 μmol m^−2 s^−1 photosynthetic photon flux at plant height during a 16 hour photoperiod. Plants were watered daily and fertilized weekly with 50 ml of a water soluble fertilizer solution (400 ppm nitrogen, 400 ppm P2O5, and 400 ppm K2O). […]
The herbicide compositions were applied through an 8003 E flat fan nozzle (available from Spraying Systems Co., Wheaton, Ill.) delivering 234 L/ha at a pressure of 172 kPa (25 gallons/acre). Corn tolerance was evaluated 8 days after treatment (DAT) by visually evaluating the plants for bleaching and necrotic symptoms and also by measuring corn height (base of the plant to its crown). […] Corn height was measured in cm and presented as a percent of the non-treated plants, with 0 indicating total reduction in plant height and 100 indicating height equal to the non-treated plants. […]

[12] = Table 3: 2-leaf corn, isoxaflutole 105 g/ha, adjuvant at the rate in the Rate column (0.5% v/v)

CS(=O)(=O)c1cc(C(F)(F)F)ccc1C(=O)c1cnoc1C1CC1 [Isoxaflutole, 5-cyclopropyl isoxazol-4-4-yl-2-mesyl-trifluoromethylphenyl ketone]
Weed Control, SETFA ([1]; 2-leaf application): 73% | Weed Control, SETFA ([1]; 4-leaf application): 70% | control of velvetleaf [2]: greater than 90% | control of common ragweed [3]: greater than 90% | control of common lambsquarters [4]: greater than 90% | Weed Control, ABUTH ([5]; 2-leaf application): 99% | Weed Control, ABUTH ([5]; 4-leaf application): 100% | Weed Control, AMARE ([6]; 2-leaf application): 98% | Weed Control, AMARE ([6]; 4-leaf application): 100% | Weed Control, CHEAL ([7]; 2-leaf application): 95% | Weed Control, CHEAL ([7]; 4-leaf application): 96% | Corn Injury ([8]; 2-leaf application, 30 DAP (21 days after application), isoxaflutole 105 g/ha, metolachlor 1121 g/ha, adjuvants 0.5% v/v): 0% | Corn Height ([8]; 2-leaf application): 61 cm | Grain Yield ([8]; 2-leaf application): 10420 kg/ha | Corn Injury ([8]; 4-leaf application, 30 DAP (15 days after application)): 10% | Corn Height ([8]; 4-leaf application): 61 cm | Grain Yield ([8]; 4-leaf application): 9995 kg/ha | control of redroot pigweed [9]: greater than 90% | Height, Isoxaflutole [10]: 99 % of control | Injury, Isoxaflutole ([10]; NIS 0.25% v/v, SMS or AFS-MTMS 0.5% v/v): 0% | Height, Isoxaflutole [11, 12]: 100 % of control | Injury, Isoxaflutole [11, 12]: 2% | % injury to corn ([11]; greenhouse, 2-leaf corn, adjuvant rate 0%, isoxaflutole 105 g/ha, metolachlor/benoxacor 1.1 kg/ha, scale 0 no effect to 100 plant death): 2% | Corn Height as a Percent of Control ([11]; greenhouse, adjuvant rate 0%): 100 % of control height
